Test results reported in patent publication US9376392B2, “2-(tert-butoxy)-2-(7-methylquinolin-6-yl) acetic acid derivatives for treating AIDS” (Gilead Sciences, Inc., priority 2012, dated 2016).

System: HIV-IIIb (MT-4 cells)
Assay: Test A: Antiviral Assays in MT4 Cells
Format: cell-based
Details: MT-4 cells infected with HIV-IIIb, 5 days of incubation, CellTiter-Glo readout
Description: The antiviral properties of a compound disclosed herein may be determined using Test A described below.
Test A: Antiviral Assays in MT4 Cells
For the antiviral assay utilizing MT-4 cells, 0.4 μL of […] test concentration of 3-fold serially diluted compound in DMSO was added to 40 μL of cell growth medium (RPMI 1640, 10% FBS, 1% penicillin/Streptomycin, 1% L-Glutamine, 1% HEPES) in each well of 384-well assay plates (10 concentrations) in quadruplicate.
1 mL aliquots of 2×10e6 MT-4 cells are pre-infected for 1 and 3 hrs respectively, @ 37° C. with 25 μL (MT4) or of either cell growth medium (mock-infected) or a fresh 1:250 dilution of an HIV-IIIb concentrated ABI stock (0.004 m.o.i. for MT4 cells). Infected and uninfected cells are diluted in cell growth medium and 35 μL of 2000 (for MT4) cells is added to each well of the assay plates.
Assay plates were then incubated in a 37° C. incubator. After 5 days of incubation, […] 2× concentrated CellTiter-Glo™ Reagent (catalog #G7573, Promega Biosciences, Inc., Madison, Wis.) was added to each well of the assay plate. Cell lysis was carried out by incubating at room temperature for 2-3 min and then chemiluminescence was read using the Envision reader (PerkinElmer).

Compound	EC50 (MT4, 120 h)	EC50
Cc1cc2c(ccc(=O)n2CCCc2ccccc2)c(-c2ccc3c4c(ccnc24)CCO3)c1[C@H](OC(C)(C)C)C(=O)O (atropisomer, axis not shown) [Example 24, (S)-2-tert-Butoxy-2-((R)-5-(2,3-dihydropyrano[4,3,2-de]quinolin-7-yl)-7-methyl-2-oxo-1-(3-phenylpropyl)-1,2-dihydroquinolin-6-yl)acetic acid]	687 nM	–
Cc1cc2c(ccc(=O)n2Cc2cncnc2)c(-c2ccc3c4c(ccnc24)CCO3)c1[C@H](OC(C)(C)C)C(=O)O (atropisomer, axis not shown) [Example 25, (S)-2-tert-butoxy-2-((R)-5-(2,3-dihydropyrano[4,3,2-de]quinolin-7-yl)-7-methyl-2-oxo-1-(pyrimidin-5-ylmethyl)-1,2-dihydroquinolin-6-yl)acetic acid]	472 nM	–
COc1cccc(Cn2c(=O)ccc3c(-c4ccc5c6c(ccnc46)CCO5)c([C@H](OC(C)(C)C)C(=O)O)c(C)cc32)c1 (atropisomer, axis not shown) [Example 26, (S)-2-tert-butoxy-2-((R)-5-(2,3-dihydropyrano[4,3,2-de]quinolin-7-yl)-1-(3-methoxybenzyl)-7-methyl-2-oxo-1,2-dihydroquinolin-6-yl)acetic acid]	99.3 nM	–
Cc1cc2c(ccc(=O)n2Cc2cc(F)cc(C(F)(F)F)c2)c(-c2ccc3c4c(ccnc24)CCO3)c1[C@H](OC(C)(C)C)C(=O)O (atropisomer, axis not shown) [Example 27, (S)-2-tert-Butoxy-2-((R)-5-(2,3-dihydropyrano[4,3,2-de]quinolin-7-yl)-1-(3-fluoro-5-(trifluoromethyl)benzyl)-7-methyl-2-oxo-1,2-dihydroquinolin-6-yl)acetic acid]	53.5 nM	–
Cc1cc2c(ccc(=O)n2Cc2cccc3c2cnn3C)c(-c2ccc3c4c(ccnc24)CCO3)c1[C@H](OC(C)(C)C)C(=O)O (atropisomer, axis not shown) [Example 28, (S)-2-tert-Butoxy-2-((R)-5-(2,3-dihydropyrano[4,3,2-de]quinolin-7-yl)-7-methyl-1-((1-methyl-1H-indazol-4-yl)methyl)-2-oxo-1,2-dihydroquinolin-6-yl)acetic acid]	45.8 nM	–
Cc1cc2c(ccc(=O)n2Cc2ccc3c(cnn3C)c2)c(-c2ccc3c4c(ccnc24)CCO3)c1[C@H](OC(C)(C)C)C(=O)O (atropisomer, axis not shown) [Example 29, (S)-2-tert-Butoxy-2-((R)-5-(2,3-dihydropyrano[4,3,2-de]quinolin-7-yl)-7-methyl-1-((1-methyl-1H-indazol-5-yl)methyl)-2-oxo-1,2-dihydroquinolin-6-yl)acetic acid]	85.5 nM	–
Cc1cc2c(ccc(=O)n2Cc2cccc(C(F)F)c2)c(-c2ccc3c4c(ccnc24)CCO3)c1[C@H](OC(C)(C)C)C(=O)O (atropisomer, axis not shown) [Example 30, (S)-2-tert-Butoxy-2-((R)-1-(3-(difluoromethyl)benzyl)-5-(2,3-dihydropyrano[4,3,2-de]quinolin-7-yl)-7-methyl-2-oxo-1,2-dihydroquinolin-6-yl)acetic acid]	34.7 nM	–
Cc1cc2c(ccc(=O)n2Cc2cncc(C(F)(F)F)c2)c(-c2ccc3c4c(ccnc24)CCO3)c1[C@H](OC(C)(C)C)C(=O)O (atropisomer, axis not shown) [Example 31, (S)-2-tert-Butoxy-2-((R)-5-(2,3-dihydropyrano[4,3,2-de]quinolin-7-yl)-7-methyl-2-oxo-1-((5-(trifluoromethyl)pyridin-3-yl)methyl)-1,2-dihydroquinolin-6-yl)acetic acid]	68.2 nM	–
Cc1cc2c(ccc(=O)n2Cc2ccc(Oc3ccccc3)cc2)c(-c2ccc3c4c(ccnc24)CCO3)c1[C@H](OC(C)(C)C)C(=O)O (atropisomer, axis not shown) [Example 32, (S)-2-tert-Butoxy-2-((R)-5-(2,3-dihydropyrano[4,3,2-de]quinolin-7-yl)-7-methyl-2-oxo-1-(4-phenoxybenzyl)-1,2-dihydroquinolin-6-yl)acetic acid]	3060 nM	–
COc1cc(Cn2c(=O)ccc3c(-c4ccc5c6c(ccnc46)CCO5)c([C@H](OC(C)(C)C)C(=O)O)c(C)cc32)cc(OC)c1 (atropisomer, axis not shown) [Example 33, (S)-2-tert-Butoxy-2-((R)-5-(2,3-dihydropyrano[4,3,2-de]quinolin-7-yl)-1-(3,5-dimethoxybenzyl)-7-methyl-2-oxo-1,2-dihydroquinolin-6-yl)acetic acid]	133 nM	–
Cc1cccc(-n2c(=O)ccc3c(-c4ccc5c6c(ccnc46)CCO5)c([C@H](OC(C)(C)C)C(=O)O)c(C)cc32)c1 (atropisomer, axis not shown) [Example 35, (S)-2-tert-Butoxy-2-((R)-5-(2,3-dihydropyrano[4,3,2-de]quinolin-7-yl)-7-methyl-2-oxo-1-m-tolyl-1,2-dihydroquinolin-6-yl)acetic acid]	1470 nM	–
Cc1cc2c(ccc(=O)n2-c2cccc(NS(C)(=O)=O)c2)c(-c2ccc3c4c(ccnc24)CCO3)c1[C@H](OC(C)(C)C)C(=O)O (atropisomer, axis not shown) [Example 36, (S)-2-tert-Butoxy-2-((R)-5-(2,3-dihydropyrano[4,3,2-de]quinolin-7-yl)-7-methyl-1-(3-(methylsulfonamido)phenyl)-2-oxo-1,2-dihydroquinolin-6-yl)acetic acid]	37400 nM	–
Cc1cc2c(ccc(=O)n2-c2cccc(S(C)(=O)=O)c2)c(-c2ccc3c4c(ccnc24)CCO3)c1[C@H](OC(C)(C)C)C(=O)O (atropisomer, axis not shown) [Example 37, (S)-2-tert-Butoxy-2-((R)-5-(2,3-dihydropyrano[4,3,2-de]quinolin-7-yl)-7-methyl-1-(3-(methylsulfonyl)phenyl)-2-oxo-1,2-dihydroquinolin-6-yl)acetic acid]	8430 nM	–
Cc1ccc2c(-c3ccc4c5c(ccnc35)CCO4)c([C@H](OC(C)(C)CCc3ccccc3)C(=O)O)c(C)cc2n1 (atropisomer, axis not shown) [Example 38, (2S)-2-((R)-5-(2,3-Dihydropyrano[4,3,2-de]quinolin-7-yl)-2,7-dimethylquinolin-6-yl)-2-(2-methyl-4-phenylbutan-2-yloxy)acetic acid]	38.1 nM	–
CCCC(C)(C)O[C@H](C(=O)O)c1c(C)cc2nc(C)ccc2c1-c1ccc2c3c(ccnc13)CCO2 (atropisomer, axis not shown) [Example 39, (2S)-2-((R)-5-(2,3-Dihydropyrano[4,3,2-de]quinolin-7-yl)-2,7-dimethylquinolin-6-yl)-2-(2-methylpentan-2-yloxy)acetic acid]	–	12.3 nM
CCCC(C)(C)O[C@H](C(=O)O)c1c(C)cc2nc(C)ccc2c1-c1ccc2c3c(ccnc13)CCO2 (atropisomer, axis not shown) [Example 40, (2S)-2-((S)-5-(2,3-Dihydropyrano[4,3,2-de]quinolin-7-yl)-2,7-dimethylquinolin-6-yl)-2-(2-methylpentan-2-yloxy)acetic acid]	–	2760 nM
CCC(C)(CC)O[C@H](C(=O)O)c1c(C)cc2nc(C)ccc2c1-c1ccc2c3c(ccnc13)CCO2 (atropisomer, axis not shown) [Example 41, (S)-2-((R)-5-(2,3-Dihydropyrano[4,3,2-de]quinolin-7-yl)-2,7-dimethylquinolin-6-yl)-2-(3-methylpentan-3-yloxy)acetic acid]	–	39 nM
CCC(C)(CC)O[C@H](C(=O)O)c1c(C)cc2nc(C)ccc2c1-c1ccc2c3c(ccnc13)CCO2 (atropisomer, axis not shown) [Example 42, (S)-2-((S)-5-(2,3-Dihydropyrano[4,3,2-de]quinolin-7-yl)-2,7-dimethylquinolin-6-yl)-2-(3-methylpentan-3-yloxy)acetic acid]	–	5630 nM
CCCCCC(C)(C)O[C@H](C(=O)O)c1c(C)cc2nc(C)ccc2c1-c1ccc2c3c(ccnc13)CCO2 (atropisomer, axis not shown) [Example 43, (S)-2-((S)-5-(2,3-Dihydropyrano[4,3,2-de]quinolin-7-yl)-2,7-dimethylquinolin-6-yl)-2-(2-methylheptan-2-yloxy)acetic acid]	39400 nM	–
CCC(C)(C)O[C@H](C(=O)O)c1c(C)cc2nc(C)ccc2c1-c1ccc2c3c(ccnc13)CCO2 (atropisomer, axis not shown) [Example 44, (S)-2-((R)-5-(2,3-Dihydropyrano[4,3,2-de]quinolin-7-yl)-2,7-dimethylquinolin-6-yl)-2-(tert-pentyloxy)acetic acid]	–	11.7 nM
CCC(C)(C)O[C@H](C(=O)O)c1c(C)cc2nc(C)ccc2c1-c1ccc2c3c(ccnc13)CCO2 (atropisomer, axis not shown) [Example 45, (S)-2-((S)-5-(2,3-Dihydropyrano[4,3,2-de]quinolin-7-yl)-2,7-dimethylquinolin-6-yl)-2-(tert-pentyloxy)acetic acid]	–	13200 nM
CNc1ccc2c(-c3ccc4c5c(ccnc35)CCO4)c([C@H](OC(C)(C)C)C(=O)O)c(C)cc2n1 (atropisomer, axis not shown) [Example 46, (S)-2-tert-Butoxy-2-((R)-5-(2,3-dihydropyrano[4,3,2-de]quinolin-7-yl)-7-methyl-2-(methylamino)quinolin-6-yl)acetic acid]	265 nM	–
